Earlier results as cited in EP1897537A1, “Composition comprising an angiotensin II receptor antagonist” (Novartis AG, priority 2006, dated 2008).

Legend:
[1] = most acidic pKa; fumaric acid values at 25 °C
[2] = immediate release tablet formulation (Diovan ®)

pKa1 [1] | bioavailability [2] | Structure (SMILES)
about 4.2 |  | O=C(O)CCC(=O)O [succinic acid]
 | around 30% | CCCCC(=O)N(Cc1ccc(-c2ccccc2-c2nnn[nH]2)cc1)[C@H](C(=O)O)C(C)C [Valsartan, (S)-N-(1-carboxy-2-methylprop-1-yl)-N-pentanoyl-N-[2'-(1H-tetrazol-5-yl)biphenyl-4-ylmethyl]amine]
